For this test, the target named is T1, glucosylceramide synthase (Homo sapiens, UniProt Q16739).
T1 construct: made in house; host or cells: Expi293F cells (transient expression, pcDNA3.3-TOPO vector); microsome fraction used as enzyme source
T1 sequence (Q16739 1-394): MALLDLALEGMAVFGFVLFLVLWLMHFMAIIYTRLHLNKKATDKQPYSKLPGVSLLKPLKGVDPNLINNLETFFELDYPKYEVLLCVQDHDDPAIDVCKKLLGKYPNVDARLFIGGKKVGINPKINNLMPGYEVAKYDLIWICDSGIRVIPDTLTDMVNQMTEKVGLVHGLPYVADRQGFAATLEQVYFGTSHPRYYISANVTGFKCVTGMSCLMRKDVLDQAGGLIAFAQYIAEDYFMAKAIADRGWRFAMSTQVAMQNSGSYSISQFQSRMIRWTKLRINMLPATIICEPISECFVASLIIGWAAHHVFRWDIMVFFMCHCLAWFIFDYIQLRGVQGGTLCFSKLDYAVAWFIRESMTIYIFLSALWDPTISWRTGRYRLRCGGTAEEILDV
As to the kind of experiment: Glucosylceramide synthase (GCS) enzyme assay, microsome fraction, C8 glucosylceramide quantified by Rapidfire MS/MS. The class given is biochemical. To be noted: test compound 10 μM; 1.7 μM UDP-glucose, 3 μM C8 ceramide; room temperature 60 min; read-out: GCS enzyme inhibitory rate at 10 μM (%) (% of control). How it is done:
Glucosylceramide Synthase (GCS) Assay
In enzyme assay, a microsome fraction obtained by transient expression by Expi293F™ cells (catalog number: A14527, Thermo Fisher Scientific) was used as a glucosylceramide synthase source. Liposomal C8 ceramide and UDP-glucose were used as substrates. […] After the enzymatic reaction, the analysis was performed with Rapidfire MS/MS (API-4000™, SCIEX), and C8 glucosylceramide was quantified to evaluate the inhibitory activity of the test compound against glucosylceramide synthase activity.
PcDNA3.3TOPO vector (catalog number: K830001, Thermo Fisher Scientific) into which the human GCS gene was inserted was introduced into Expi293F™ Cells (catalog number: A14527, Thermo Fisher Scientific) by using ExpiFectamine™ 293 Transfection Kit (catalog number: A14525, Thermo Fisher Scientific). The cultured cells were dissolved in D-PBS (catalog number: 048-29805, Fuji Film Wako Pure Chemical Industries, Ltd.) containing 1 mM PMSF, and the solution was allowed to stand on ice for 30 minutes, and then subjected to cell disruption (homogenized). The disruption solution was centrifuged at 10,000×g for 20 minutes at 4° C., and the obtained supernatant was centrifuged at 142,400×g for 60 minutes at 4° C. The obtained precipitate was resuspended in a D-PBS solution containing 1 mM PMSF, and homogenized again to prepare as a microsome fraction. Protein quantification was performed by the CBB method.
A 1 mM compound solution prepared by dissolving the test compound in DMSO was added to a 384-well plate by 100 nL so that the final concentration of the test compound was 10 μM. Next, a substrate solution consisting of 3.4 μM UDP-glucose and 6 μM C8 ceramide was added by 5 μL, followed by an enzyme solution consisting of a 25 μg/mL microsome fraction by 5 μL. C8 ceramide was prepared from liposomes composed of 15 mol % C8 ceramide and 85 mol % dioleoyl phosphatidylcholine (1,2-dioleoyl-sn-glycero-3-phosphocholine: DOPC). The enzymatic reaction was carried out in a solution consisting of 20 mM tris-hydrochloric acid buffer (pH 7.5), 0.01% Tween 20, 0.01% bovine serum albumin and 1 mM dithiothreitol at room temperature for 60 min. Then, a solution consisting of 75% isopropanol and 1% formic acid containing 0.25 μM N-Octadecanoyl-D35-psichosine (catalog number: 1914, Matreya) as an internal standard substance was added by 60 μL to stop the enzymatic reaction. 5 μL of the centrifugal supernatant of the obtained reaction product was analyzed by Rapidfire MS/MS (Agilent Technologies) using API-4000™ (SCIEX), and the C8 glucosylceramide was quantified to evaluate the inhibitory activity of the test compound against the glucosylceramide synthase activity. The inhibitory activity of the test compound was evaluated when the C8 glucosylceramide level in the enzyme-free solution was considered as 100% inhibitory and the enzyme activity of the DMSO group in the absence of the compound was considered as 0% inhibitory.
Consider `COc1ccccc1-c1nccc2c1CN(c1ccc(OC(F)(F)F)cc1)C2=O` [Example 3, 4-(2-methoxyphenyl)-2-[4-(trifluoromethoxy)phenyl]-2,3-dihydro-1H-pyrrolo[3,4-c]pyridin-1-one], for which the inhibition at 10 µM came to 98%.
The figure for `COc1ccccc1-c1nccc2c1CN(c1ccc(C3CC3)cc1)C2=O` [Example 4, 2-(4-cyclopropylphenyl)-4-(2-methoxyphenyl)-2,3-dihydro-1H-pyrrolo[3,4-c]pyridin-1-one] is 99%; for `COc1ccccc1-c1nccc2c1CN(c1ccc(Oc3ccccc3)cc1)C2=O` [Example 5, 4-(2-methoxyphenyl)-2-(4-phenoxyphenyl)-2,3-dihydro-1H-pyrrolo[3,4-c]pyridin-1-one] it is 100%; for `COc1ccccc1-c1nccc2c1CN(c1ccc(C(F)(F)F)cc1)C2=O` [Example 6, 4-(2-methoxyphenyl)-2-[4-(trifluoromethyl)phenyl]-2,3-dihydro-1H-pyrrolo[3,4-c]pyridin-1-one] it is 95%.
The result for `COc1cc(F)ccc1-c1nccc2c1CN(c1ccc(F)cc1)C2=O` [Example 7, 4-(4-fluoro-2-methoxyphenyl)-2-(4-fluorophenyl)-2,3-dihydro-1H-pyrrolo[3,4-c]pyridin-1-one] reads 70%; that for `O=C1c2ccnc(-c3ccc(F)cc3OCC(F)(F)F)c2CN1c1ccc(F)cc1` [Example 13, 2-(4-fluorophenyl)-4-[4-fluoro-2-(2,2,2-trifluoroethoxy)phenyl]-2,3-dihydro-1H-pyrrolo[3,4-c]pyridin-1-one], 63%.
The figure for `O=C1c2ccnc(-c3ccc(F)cc3OCC(F)F)c2CN1c1ccc(F)cc1` [Example 16, 4-[2-(2,2-difluoroethoxy)-4-fluorophenyl]-2-(4-fluorophenyl)-2,3-dihydro-1H-pyrrolo[3,4-c]pyridin-1-one] is 73%; for `COc1ccccc1-c1nccc2c1CN(c1ccc(C#N)cc1)C2=O` [Example 18, 4-[4-(2-methoxyphenyl)-1-oxo-1,3-dihydro-2H-pyrrolo[3,4-c]pyridin-2-yl]benzonitrile] it is 56%; for `COc1ccccc1-c1nccc2c1CN(c1ccc(C)cc1)C2=O` [Example 23, 4-(2-methoxyphenyl)-2-(4-methylphenyl)-2,3-dihydro-1H-pyrrolo[3,4-c]pyridin-1-one] it is 99%.
Turning to `COc1ccc(N2Cc3c(ccnc3-c3ccccc3OC)C2=O)cc1` [Example 24, 4-(2-methoxyphenyl)-2-(4-methoxyphenyl)-2,3-dihydro-1H-pyrrolo[3,4-c]pyridin-1-one], the inhibition at 10 µM came to 89%.
The figure for `COc1ccccc1-c1nccc2c1CN(c1ccc(OC(F)F)cc1)C2=O` [Example 25, 2-[4-(difluoromethoxy)phenyl]-4-(2-methoxyphenyl)-2,3-dihydro-1H-pyrrolo[3,4-c]pyridin-1-one] is 99%; for `COc1ccccc1-c1nccc2c1CN(c1ccc(OC(F)(F)F)nc1)C2=O` [Example 26, 4-(2-methoxyphenyl)-2-[6-(trifluoromethoxy)pyridin-3-yl]-2,3-dihydro-1H-pyrrolo[3,4-c]pyridin-1-one] it is 92%; for `COc1ccccc1-c1nccc2c1CN(c1ccc(OC(F)F)nc1)C2=O` [Example 27, 2-[6-(difluoromethoxy)pyridin-3-yl]-4-(2-methoxyphenyl)-2,3-dihydro-1H-pyrrolo[3,4-c]pyridin-1-one] it is 93%.
The figure for `O=C1c2ccnc(-c3ccccc3OC(F)F)c2CN1c1ccc(F)cc1` [Example 28, 4-[2-(difluoromethoxy)phenyl]-2-(4-fluorophenyl)-2,3-dihydro-1H-pyrrolo[3,4-c]pyridin-1-one] is 84%.
The result for `COc1ccccc1-c1nccc2c1CN(c1ccc(OC(F)(F)F)cn1)C2=O` [Example 29, 4-(2-methoxyphenyl)-2-[5-(trifluoromethoxy)pyridin-2-yl]-2,3-dihydro-1H-pyrrolo[3,4-c]pyridin-1-one] reads 96%; that for `O=C1c2ccnc(-c3ccccc3N3CCOCC3)c2CN1c1ccc(F)cc1` [Example 30, 2-(4-fluorophenyl)-4-[2-(morpholin-4-yl)phenyl]-2,3-dihydro-1H-pyrrolo[3,4-c]pyridin-1-one], 91%; that for `CSc1ccccc1-c1nccc2c1CN(c1ccc(F)cc1)C2=O` [Example 31, 2-(4-fluorophenyl)-4-[2-(methylsulfanyl)phenyl]-2,3-dihydro-1H-pyrrolo[3,4-c]pyridin-1-one], 93%.
In the case of `COc1ccccc1-c1nccc2c1CN(c1ccc(C(F)(F)F)cn1)C2=O` [Example 32, 4-(2-methoxyphenyl)-2-[5-(trifluoromethyl)pyridin-2-yl]-2,3-dihydro-1H-pyrrolo[3,4-c]pyridin-1-one], the inhibition at 10 µM amounted to 93%.
The figure for `COc1cnc(C)cc1-c1nccc2c1CN(c1ccc(F)cc1)C2=O` [Example 33, 2-(4-fluorophenyl)-4-(5-methoxy-2-methylpyridin-4-yl)-2,3-dihydro-1H-pyrrolo[3,4-c]pyridin-1-one] is 68%.
The figure for `COC(=O)c1ccc(-c2nccc3c2CN(c2ccc(F)cc2)C3=O)c(OC(F)F)c1` [Example 34, methyl 3-(difluoromethoxy)-4-[2-(4-fluorophenyl)-1-oxo-2,3-dihydro-1H-pyrrolo[3,4-c]pyridin-4-yl]benzoate] is 83%; for `COc1ccccc1-c1nccc2c1CN(c1ccc(OC(F)F)cn1)C2=O` [Example 39, 2-[5-(difluoromethoxy)pyridin-2-yl]-4-(2-methoxyphenyl)-2,3-dihydro-1H-pyrrolo[3,4-c]pyridin-1-one] it is 93%; for `NC(=O)c1ccc(-c2nccc3c2CN(c2ccc(F)cc2)C3=O)c(OC(F)F)c1` [Example 40, 3-(difluoromethoxy)-4-[2-(4-fluorophenyl)-1-oxo-2,3-dihydro-1H-pyrrolo[3,4-c]pyridin-4-yl]benzamide] it is 54%.
The figure for `O=C1c2ccnc(-c3ccccc3OCC(F)(F)F)c2CN1c1ccc(F)cc1` [Example 42, 2-(4-fluorophenyl)-4-[2-(2,2,2-trifluoroethoxy)phenyl]-2,3-dihydro-1H-pyrrolo[3,4-c]pyridin-1-one] is 94%; for `COc1ccccc1-c1nccc2c1CN(c1ccc(F)cn1)C2=O` [Example 43, 2-(5-fluoropyridin-2-yl)-4-(2-methoxyphenyl)-2,3-dihydro-1H-pyrrolo[3,4-c]pyridin-1-one] it is 95%; for `Cn1ccc(N2Cc3c(ccnc3-c3ccc(F)cc3OCC(F)(F)F)C2=O)n1` [Example 45, 4-[4-fluoro-2-(2,2,2-trifluoroethoxy)phenyl]-2-(1-methyl-1H-pyrazol-3-yl)-2,3-dihydro-1H-pyrrolo[3,4-c]pyridin-1-one] it is 89%.
For the compound `CCOC(=O)c1ccc(-c2nccc3c2CN(c2ccc(F)cc2)C3=O)c(OC)c1` [Example 48, ethyl 4-[2-(4-fluorophenyl)-1-oxo-2,3-dihydro-1H-pyrrolo[3,4-c]pyridin-4-yl]-3-methoxybenzoate], the inhibition at 10 µM was 70%.
On to `COc1ccccc1-c1nccc2c1CN(c1ccc(OCC(F)(F)F)cc1)C2=O` [Example 50, 4-(2-methoxyphenyl)-2-[4-(2,2,2-trifluoroethoxy)phenyl]-2,3-dihydro-1H-pyrrolo[3,4-c]pyridin-1-one], for which the inhibition at 10 µM came to 99%.

The values are drawn from patent US12528802B2, “Heterocyclic compound” (Takeda Pharmaceutical Company Limited, priority 2019, dated 2026).
